Data as given in US8883963B2 (Cadila Healthcare Limited, priority 2007, dated 2014).

Key:
[1] = system: RIN5F (Rat Insulinoma) cells; test: In vitro glucose-dependent insulin secretion (RIN5F cell assay screening protocol); type: cell-based; conditions: 16.7 mM glucose load
DPP IV = DPP IV (Homo sapiens, UniProt P27487); test: Stability against DPP IV enzyme; type: in vitro ADME; conditions: 37° C.; for % degradation of peptidomimetics in 24 h when incubated with DPP-IV enzyme: 2 μM peptidomimetic; for half-life at 2 μM: DPP IV enzyme, pH 7.8, 2 μM peptidomimetic, read-out: half-life (t1/2) when incubated with DPP-IV enzyme
Procedure: (§1) Reactions were terminated by the addition of TFA/H2O (15 mL, 10% (v/v)). […] The column was equilibrated with TFA/H20, at a flow rate of 1 mL/min.

[2] = Stability in simulated gastric fluid; type: in vitro ADME; conditions: 2 μM peptidomimetic, simulated gastric fluid pH 1.5, 37° C.; for half-life at 2 μM: read-out: half-life (t1/2) when incubated with simulated gastric fluid
Procedure: as §1

human glucagon receptor = target: T1, human glucagon receptor (Homo sapiens, UniProt P47871); test: In vitro human glucagon antagonist activity (inhibition of cAMP production) in CHO/human glucagon R cells; type: cell-based; conditions: with saturated concentration of glucagon peptide
T1 construct: The full-length cDNA was cloned in pcDNA3.1 (Invitrogen); expressed in transfected cells

[3] = Stability in human plasma; type: in vitro ADME; conditions: 2 μM peptidomimetic, pooled human plasma, 37° C.; for half-life at 2 μM: pH 7.8, read-out: half-life (t1/2) when incubated with human plasma
Procedure: as §1

Human GLP-1 receptor = target: T2, Human GLP-1 receptor (Homo sapiens, UniProt P43220); test: In vitro Human GLP-1 R agonist activity (cyclic AMP determination) in CHO/human GLP1R cells; type: cell-based
T2 construct: The full-length cDNA was cloned in pcDNA3.1(+); expressed in transfected cells

[4] = Stability in simulated intestinal fluid; type: in vitro ADME; conditions: 2 μM peptidomimetic, simulated intestinal fluid pH 7.5, 37° C.; for half-life at 2 μM: read-out: half-life (t1/2) when incubated with simulated intestinal fluid
Procedure: as §1

[5] = Stability in liver microsomes; type: in vitro ADME; conditions: 2 μM peptidomimetic, human liver microsomes, 37° C.; for half-life at 2 μM: pH 7.8, read-out: half-life (t1/2) when incubated with liver microsomes
Procedure: as §1

Chain of DPP IV (P27487 whole entry, species assumed): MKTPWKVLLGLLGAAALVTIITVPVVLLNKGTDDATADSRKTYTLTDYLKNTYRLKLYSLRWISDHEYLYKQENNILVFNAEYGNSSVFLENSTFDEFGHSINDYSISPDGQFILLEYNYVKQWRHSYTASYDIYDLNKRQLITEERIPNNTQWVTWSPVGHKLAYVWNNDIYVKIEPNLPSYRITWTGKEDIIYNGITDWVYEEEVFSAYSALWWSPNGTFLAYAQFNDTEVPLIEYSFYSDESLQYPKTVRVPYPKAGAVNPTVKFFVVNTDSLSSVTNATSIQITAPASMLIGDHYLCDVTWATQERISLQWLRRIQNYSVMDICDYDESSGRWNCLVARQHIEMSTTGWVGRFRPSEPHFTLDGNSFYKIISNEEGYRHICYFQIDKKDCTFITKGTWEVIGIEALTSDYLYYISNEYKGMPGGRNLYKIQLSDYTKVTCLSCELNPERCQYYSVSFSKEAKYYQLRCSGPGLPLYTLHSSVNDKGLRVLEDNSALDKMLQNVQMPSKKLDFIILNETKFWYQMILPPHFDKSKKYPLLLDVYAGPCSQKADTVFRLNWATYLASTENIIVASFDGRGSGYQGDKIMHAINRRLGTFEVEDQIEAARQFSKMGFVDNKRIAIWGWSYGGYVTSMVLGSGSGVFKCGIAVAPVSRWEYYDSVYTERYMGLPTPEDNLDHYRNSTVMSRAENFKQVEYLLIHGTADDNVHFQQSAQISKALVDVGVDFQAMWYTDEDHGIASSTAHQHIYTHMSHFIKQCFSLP
T2 sequence (P43220 24-463): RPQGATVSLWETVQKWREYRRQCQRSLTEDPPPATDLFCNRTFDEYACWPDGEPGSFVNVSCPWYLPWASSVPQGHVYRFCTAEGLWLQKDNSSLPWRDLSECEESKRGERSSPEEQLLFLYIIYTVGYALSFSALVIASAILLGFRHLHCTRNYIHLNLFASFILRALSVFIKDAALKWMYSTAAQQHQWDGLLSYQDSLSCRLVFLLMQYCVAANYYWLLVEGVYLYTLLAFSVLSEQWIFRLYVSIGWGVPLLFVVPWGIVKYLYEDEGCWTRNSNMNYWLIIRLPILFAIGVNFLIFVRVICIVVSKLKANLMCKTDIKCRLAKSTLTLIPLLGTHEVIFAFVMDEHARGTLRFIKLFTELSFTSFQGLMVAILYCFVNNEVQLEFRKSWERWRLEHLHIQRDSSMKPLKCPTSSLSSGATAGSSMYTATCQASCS
T1 sequence (P47871 26-477): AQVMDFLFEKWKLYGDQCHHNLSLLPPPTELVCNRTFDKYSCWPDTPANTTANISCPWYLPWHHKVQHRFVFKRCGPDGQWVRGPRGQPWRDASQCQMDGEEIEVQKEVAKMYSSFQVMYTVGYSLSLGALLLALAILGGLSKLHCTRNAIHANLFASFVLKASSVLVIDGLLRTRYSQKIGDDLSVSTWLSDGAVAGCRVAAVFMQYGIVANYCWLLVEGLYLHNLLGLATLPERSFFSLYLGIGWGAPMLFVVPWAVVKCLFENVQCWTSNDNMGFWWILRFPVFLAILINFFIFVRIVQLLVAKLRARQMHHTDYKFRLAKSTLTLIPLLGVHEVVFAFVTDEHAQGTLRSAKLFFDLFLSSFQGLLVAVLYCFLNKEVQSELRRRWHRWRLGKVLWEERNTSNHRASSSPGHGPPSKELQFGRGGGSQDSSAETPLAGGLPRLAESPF

Row | SMILES | Insulin secretion ([1]; 0.1 nM test compd.) [pg/µg/h] | Insulin secretion ([1]; 1 nM test compd.) [pg/µg/h] | Insulin secretion ([1]; 10 nM test compd.) [pg/µg/h] | % degradation of peptidomimetics in 24 h when incubated with DPP-IV enzyme (DPP IV) [%] | half-life at 2 μM (DPP IV) [h] | % degradation of peptidomimetics in 24 h when incubated with simulated gastric fluid [2] [%] | half-life at 2 μM [2] [h] | Human Glucagon receptor antagonistic activity shown as inhibition of cAMP production of Glucagon peptide (human glucagon receptor; 1 nM test compound) [pmol/ml/μg prt] | Human Glucagon receptor antagonistic activity shown as inhibition of cAMP production of Glucagon peptide (human glucagon receptor; 10 nM test compound) [pmol/ml/μg prt] | Human Glucagon receptor antagonistic activity shown as inhibition of cAMP production of Glucagon peptide (human glucagon receptor; 100 nM test compound) [pmol/ml/μg prt] | Human Glucagon receptor antagonistic activity shown as inhibition of cAMP production of Glucagon peptide (human glucagon receptor; 1 μM test compound) [pmol/ml/μg prt] | Human Glucagon receptor antagonistic activity shown as inhibition of cAMP production of Glucagon peptide (human glucagon receptor; 10 μM test compound) [pmol/ml/μg prt] | % degradation of peptidomimetics in 24 h when incubated with human plasma [3] [%] | half-life at 2 μM [3] [h] | Human GLP-1 R activity (cAMP release), % activity with respect to control (Human GLP-1 receptor; 1 nM test compound) [%] | Human GLP-1 R activity (cAMP release), % activity with respect to control (Human GLP-1 receptor; 10 nM test compound) [%] | Human GLP-1 R activity (cAMP release), % activity with respect to control (Human GLP-1 receptor; 100 nM test compound) [%] | Human GLP-1 R activity (cAMP release), % activity with respect to control (Human GLP-1 receptor; 1 μM test compound) [%] | Human GLP-1 R activity (cAMP release), % activity with respect to control (Human GLP-1 receptor; 10 μM test compound) [%] | % degradation of peptidomimetics in 24 h when incubated with simulated intestinal fluid [4] [%] | other results
1 | CCc1cc(OC)ccc1-c1ccc(CC(NC(=O)[C@H](CC(=O)O)NC(=O)[C@H](CO)NC(=O)[C@@H](NC(=O)[C@H](Cc2ccccc2)NC(=O)[C@@H](NC(=O)CNC(=O)C(CCC#N)NC(=O)C(C)(C)NC(=O)[C@@H](N)Cc2c[nH]cn2)[C@@H](C)O)[C@@H](C)O)C(=O)NC(CCCc2ccc(OC)cc2Cl)C(N)=O)cc1 (single isomer, unassigned) [compound 84] | 12.1 ± 0.42 | 14.6 ± 0.41 | 27.8 ± 0.46 | 00 | > 24 | 45 | 4 | 4 ± 0.01 | 2 ± 0.17 | 0 | 0 | 0 | 00 | > 24 | 38 ± 0.11 | 77 ± 0.16 | 85 ± 0.11 | 94 ± 0.08 | 97 ± 0.05 | 00 | half-life at 2 μM [4]: > 24 h; % degradation of peptidomimetics in 24 h when incubated with liver microsomes [5]: 85%; half-life at 2 μM [5]: 2 h
2 | CCc1cc(OC)ccc1-c1ccc(CC(NC(=O)[C@H](CC(=O)O)NC(=O)[C@H](CO)NC(=O)[C@@H](NC(=O)C(C)(Cc2ccccc2F)NC(=O)[C@@H](NC(=O)CNC(=O)C(CCC#N)NC(=O)C(C)(C)NC(=O)[C@@H](N)Cc2c[nH]cn2)[C@H](C)O)[C@@H](C)O)C(=O)NC(CCCc2ccccc2)C(N)=O)cc1 (single isomer, unassigned) [compound 110] | 12.0 ± 0.14 | 14.3 ± 0.12 | 27.8 ± 0.32 | 00 | > 24 | 43 | 4 | 18 ± 0.07 | 16 ± 0.01 | 12 ± 0.03 | 8 ± 0.02 | 6 ± 0.08 | 00 | > 24 | 38 ± 0.11 | 77 ± 0.16 | 85 ± 0.11 | 94 ± 0.08 | 97 ± 0.05 | 00 | half-life at 2 μM [4]: > 24 h; % degradation of peptidomimetics in 24 h when incubated with liver microsomes [5]: 84%; half-life at 2 μM [5]: 2 h
